Data: US12221422B2, “Compounds and their use for the treatment of alpha1-antitrypsin deficiency” (CENTESSA PHARMACEUTICALS (UK) LIMITED, priority 2018, dated 2025)

How the values were obtained:
hERG = hERG (Homo sapiens, UniProt Q12809); experiment: hERG channel inhibition, Patchliner automated patch clamp; assay type: cell-based; settings: human; at 100 μM
Protocol: (§1) Compounds of the invention were tested for inhibition of cardiac potassium (hERG) channels using the Patchliner automated patch clamp. 6-Point concentration-response curves were generated using half-log serial dilutions from a maximum final test concentration of 100 μM. IC50 values were obtained from a 4-parameter logistic fit of the concentration-response data. […] Reference compound values were consistent with those presented in the literature (Elkins et al., 2013 J. Pharm. Tox. Meth. 68:11-122).

[1] = biological target: cardiac potassium (hERG) channels (Homo sapiens, UniProt Q12809); experiment: as above; assay type: cell-based; settings: automated patch clamp, maximum test concentration 100 μM
Protocol: as §1

human Z A1AT = human Z A1AT (Homo sapiens, UniProt P01009, E366K); experiment: Circulating human Z A1AT levels in huZ mice; assay type: in vivo, huZ mouse; set-up: from tissue; host or cells: huZ (PiZZ) transgenic mice, line Z11.03, C57Bl/6 background; made in liver, measured in plasma; settings: huZ mice, 5, 15 or 50 mg/kg twice a day by oral gavage, 14 days, plasma days 12-14
Description: The huZ mouse (also referred to as the PiZZ mouse) is a transgenic mouse strain that contains multiple copies of the Z variant of the human A1AT gene, developed by two separate groups Dycaico et al (Science (1988) 242:1409-12) and Carlson et al (J. Clin Invest (1989) 83:1183-90). PiZZ mice are on a C57Bl/6 background and express the human Z A1AT protein in liver tissue. The mice used in this study are from the progeny of Carlson and colleagues (transgenic line Z11.03). […]
HuZ mice (n=4/group; male or female) with basal human A1AT plasma levels of between 200-600 μg/ml were treated with either vehicle or N,N-dimethyl-4-((6-oxopyrimidin-1(6H)-yl)methyl)benzamide at 5, 15 or 50 mg/kg twice a day by oral gavage for 14 consecutive days. […] Human Z A1AT levels in mouse plasma samples were measured by ELISA (Human Serpin A1/α1-antitrypsin duo set ELISA, R& D Systems, DY1268) per manufacturer's instructions.
Briefly, a 96 well plate was coated with human A1AT capture antibody overnight at room temperature (1:180 dilution from stock, 100 μl final volume/well). […] After which, 50 μl stop solution (2M H2SO4) was added and optical density (OD) of each well was read at 450 nm with 570 nm blank subtracted from each well using a microplate reader. […]
The effect of N,N-dimethyl-4-((6-oxopyrimidin-1(6H)-yl)methyl)benzamide on circulating levels of human Z A1AT was assessed in a huZ mouse model. […]

[2] = system: TA98, TA100, WP2 uvrA, TA1535, TA1537 bacterial strains; experiment: Bacterial reverse mutation test; settings: up to 5000 μg/plate, presence and absence of S-9 mix
Protocol: The purpose of the bacterial reverse mutation test is to assess the mutagenic potential of the test item by its ability to revert the specified bacterial strains from auxotrophic growth to prototrophy. The assay detects point (gene) mutations at specific histidine or tryptophan loci, which may be induced by compounds that cause base pair substitutions or frameshift mutations in the genome of these organisms. Assays were performed in the presence and absence of an exogenous mammalian oxidative metabolising system (S-9 mix, a liver post-mitochondrial fraction derived from the livers of Aroclor 1254 treated rats), to mimic mammalian metabolism. The test methodology was based on established procedures for bacterial mutagenicity testing.
N,N-dimethyl-4-((6-oxopyrimidin-1(6H)-yl)methyl)benzamide was tested up to the guideline regulatory maximum dose level of 5000 μg/plate in all strains in the presence and absence of […].
There were no increases in revertant numbers, greater than the defined fold-increases (to twice the relevant negative control value for TA98, TA100 or WP2 uvrA or three times the relevant negative control value for TA1535 or TA1537), in any strain at any dose level of N,N-dimethyl-4-((6-oxopyrimidin-1(6H)-yl)methyl)benzamide, in the presence or absence of S-9 mix, under plate incorporation conditions.

[3] = system: panel of enzymes, ion channels and receptors; experiment: DiscoverX Safety47 panel; settings: at 10 μM
Protocol: Compounds of the invention were tested against the DiscoverX Safety47™ panel. […] No target was inhibited by more than 25% at this concentration.

[4] = Plasma protein binding, rat plasma (rapid equilibrium dialysis); assay type: in vitro ADME; settings: 37° C.
Protocol: The extent to which compounds of the invention bound to plasma proteins such as albumin and alpha-1 acid glycoprotein within human, rat or mouse plasma was determined by rapid equilibrium dialysis. Compounds were incubated at 5 μM for 4 hours at 37° C. Plasma protein binding for N,N-dimethyl-4-((6-oxopyrimidin-1(6H)-yl)methyl)benzamide in mouse plasma was 37.3%, in rat plasma was 14.8% and in human plasma was 30.6%.

Sequence of hERG (Q12809 whole entry): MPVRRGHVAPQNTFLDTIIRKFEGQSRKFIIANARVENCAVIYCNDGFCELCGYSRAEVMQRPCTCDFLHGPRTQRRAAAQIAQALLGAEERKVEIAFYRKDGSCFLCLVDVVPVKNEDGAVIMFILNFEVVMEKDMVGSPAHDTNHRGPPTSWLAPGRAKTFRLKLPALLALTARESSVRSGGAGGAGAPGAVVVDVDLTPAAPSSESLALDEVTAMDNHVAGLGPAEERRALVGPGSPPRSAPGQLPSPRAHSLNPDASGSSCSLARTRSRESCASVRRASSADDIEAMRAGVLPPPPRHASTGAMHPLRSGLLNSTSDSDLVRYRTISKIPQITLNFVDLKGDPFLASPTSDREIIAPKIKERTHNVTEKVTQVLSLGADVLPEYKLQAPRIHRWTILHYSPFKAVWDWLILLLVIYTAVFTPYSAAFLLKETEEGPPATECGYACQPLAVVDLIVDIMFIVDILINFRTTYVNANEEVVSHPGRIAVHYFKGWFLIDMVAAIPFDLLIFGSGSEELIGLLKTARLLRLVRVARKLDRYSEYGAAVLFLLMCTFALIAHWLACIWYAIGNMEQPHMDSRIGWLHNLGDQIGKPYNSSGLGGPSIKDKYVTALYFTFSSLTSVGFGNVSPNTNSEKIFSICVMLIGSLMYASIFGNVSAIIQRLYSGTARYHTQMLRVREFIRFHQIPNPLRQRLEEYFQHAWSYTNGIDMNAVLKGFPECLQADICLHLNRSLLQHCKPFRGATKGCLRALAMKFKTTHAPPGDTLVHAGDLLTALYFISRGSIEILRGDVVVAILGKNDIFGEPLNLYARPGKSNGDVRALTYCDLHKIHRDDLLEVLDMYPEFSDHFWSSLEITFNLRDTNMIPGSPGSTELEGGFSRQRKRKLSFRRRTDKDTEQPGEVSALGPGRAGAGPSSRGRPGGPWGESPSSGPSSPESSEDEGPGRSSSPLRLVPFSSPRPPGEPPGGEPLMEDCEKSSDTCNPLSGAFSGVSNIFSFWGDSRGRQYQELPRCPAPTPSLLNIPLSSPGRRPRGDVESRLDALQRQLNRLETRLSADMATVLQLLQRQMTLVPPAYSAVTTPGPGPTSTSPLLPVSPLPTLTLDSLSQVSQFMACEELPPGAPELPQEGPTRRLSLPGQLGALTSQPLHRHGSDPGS
Sequence of cardiac potassium (hERG) channels (Q12809 whole entry): as above
Sequence of human Z A1AT (P01009 25-418 E366K): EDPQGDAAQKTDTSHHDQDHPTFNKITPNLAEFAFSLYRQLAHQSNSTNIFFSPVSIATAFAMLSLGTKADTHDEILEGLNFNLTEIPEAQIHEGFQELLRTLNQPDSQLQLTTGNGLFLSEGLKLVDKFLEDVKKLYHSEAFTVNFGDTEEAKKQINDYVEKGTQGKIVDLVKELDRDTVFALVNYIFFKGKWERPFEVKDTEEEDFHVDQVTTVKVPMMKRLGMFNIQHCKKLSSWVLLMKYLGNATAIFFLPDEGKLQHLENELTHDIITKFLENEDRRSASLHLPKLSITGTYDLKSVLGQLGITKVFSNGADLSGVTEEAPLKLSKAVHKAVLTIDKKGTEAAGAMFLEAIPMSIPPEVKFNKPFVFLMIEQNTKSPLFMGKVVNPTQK

CN(C)C(=O)c1ccc(Cn2cnccc2=O)cc1 [N,N-dimethyl-4-((6-oxopyrimidin-1(6H)-yl)methyl)benzamide]
inhibition at 100 µM (hERG): 7% | IC50 [1]: > 100 µM | circulating human Z A1AT compared to baseline levels (human Z A1AT): stimulates secretion of human Z A1AT compared to baseline levels in huZ mice in a dose dependent manner | mutagenicity (revertant numbers) ([2]; all strains, plate incorporation): not mutagenic | toxicity to bacterial strains [2]: no evidence of toxicity | inhibition of any target of the Safety47 panel [3]: ≤ 25% | fraction unbound at 4 h, 5 μM [4]: 0.852
